Measurements as given in patent US20180251431A1 (VERTEX PHARMACEUTICALS INCORPORATED, priority 2016, published 2018).
“Also recorded” adds a separate entry of the source.

Test system: ABCD1 knockout (KO) mice
Test: Reduction of blood C26:0 LPC in vivo in ABCD1 knockout mice (DBS, LC-MS/MS)
Design: species or system mouse
Method: Bioanalysis of LPC in Whole Blood and Brain Tissue:
A LC-MS/MS method of analyzing Lysophosphatidylcholine (LPC) in whole blood (dried blood spot card, DBS) and brain tissue samples was developed for measuring the abundance of saturated C16, C18, C20, C22, C24 and C26 LPC in DBS and brain samples. Whole blood was collected with Whatman DMPK-C DBS card at an approximate volume of 20 μL at each time point. Brain tissue was collected at the end point of the study. Samples were prepared and LC-MS/MS analysis was performed as described below.
Sample Preparation for LPC Bioanalysis:
For DBS bioanalysis, the DBS card was punched at 3 mm in diameter using a semi-automated DBS card puncher. To each punched spot 200 μL of pure methanol was added. The vial was vortexed at low speed for 20 minutes and centrifuged at 4000 rpm for 20 minutes. The clear supernatant was injected onto LC-MS/MS for analysis. For brain tissue bioanalysis, brain tissue was collected in a tared homogenization tube pre-filled with metal bead and weighted. To each sample vial two parts weight of methanol was added. The sample was homogenized using Precellys-24 at 5000 rpm for 20 seconds with one cycle. A 100 mg aliquot of homogenate was used for analysis. To each sample vial 400 μL of pure methanol was added. The vial was vortexed at low speed for 20 minutes and centrifuged at 4000 rpm for 20 minutes. The clear supernatant was injected onto LC-MS/MS for analysis.
The supernatant obtained from each sample was injected into a LC-MS/MS system (Agilent Technologies, Santa Clara, Calif. and Applied Biosystems, Framingham, Mass.) for analysis. All six LPC components (C16:0, C18:0, C20:0, C22:0, C24:0 and C26:0) were chromatographically separated using a Series 1290 binary pump and a Phenomenex (Torrance, Calif.) Kinetex C18 analytical column (2.1×100 mm, 5 μm particle diameter) with a 10-min gradient. A 5% acetonitrile in water solution was used as the aqueous phase and a 40% acetonitrile/60% methanol solution in 1% 2 Mol ammonium acetate was used as the organic mobile phase for achieving the chromatographic analysis. LPCs were detected by an AB Sciex API-6500 triple quadrupole MS with electrospray ionization in the mode of multiple reaction monitoring. Ions of Q1 were monitored at m/z of 496.6, 524.6, 552.6, 580.6, 608.6 and 636.6 for LPC 16:0, LPC 18:0, LPC 20:0, LPC 22:0, LPC 24:0 and LPC 26:0, respectively. A common Q3 ion m/z of 184.2 was used for all LPC analyses. C16:0 LPC levels were expressed as a concentration. All other LPC levels were expressed relative to C16. A one-way ANOVA with Dunnett's multiple comparisons test was performed to assess differences in LPC levels among the different groups. A value of P≤0.05 was considered statistically significant. All statistical analyses were conducted using Prism Software version 7.01 (GraphPad, La Jolla, Calif.).
Dosing in ABCD1 Knockout Mice:
To determine the effect of Compound 87 on blood VLCFA levels, Compound 87 was administered to ABCD1 knockout (KO) mice, a model that reproduces the C26:0 VLCFA accumulation observed in ALD patients. Specifically, Compound 87 was administered orally (PO) QD at 1, 8, or 16 mg/kg to ABCD1 KO mice (n=5 per group). DBS were collected on day 0 (pre-dosing), and daily through 14 days of dosing. DBS cards were stored at 4° C. in sealed ziplock bags with desiccant until they could be analyzed for LPC using the sample preparation and LC-MS/MS as described above. The vehicle used was 2% D-α-Tocopherol polyethylene glycol 1000 succinate (TPGS) and Compound 87 doses were prepared in 2% TPGS. […] Interperitoneal dosing, at 2 or 20 mg/kg (data not shown) or oral (PO) dosing at 1, 8, or 16 mg/kg (FIG. 2A) yielded similar results. A dose response was observed between 1 and 8 mg/kg. […] Error bars indicate standard deviation.
Daily Oral Dosing in ABCD1 Knockout Mice: […]

O=C(Nc1ccn(-c2ccnc(F)c2)n1)C1(c2ccccc2F)CC1 [Compound 87, 1-(2-fluorophenyl)-N-[1-(2-fluoro-4-pyridyl)pyrazol-3-yl]cyclopropanecarboxamide]
Plasma C26:0 LPC levels (ABCD1 KO mice, 1, 8, or 16 mg/kg PO QD for 14 days): dropped over the first 8 days before plateauing at near WT baseline levels | reduction in C24:0 and C26:0 LPC levels compared to vehicle controls (ABCD1 KO mice, blood (DBS), 0.5 mg/kg PO QD for 28 days): 50% | reduction in C26:0 LPC levels (dose response plateau) (ABCD1 KO mice, blood (DBS), plateau between the 4 mg/kg and 8 mg/kg doses, PO QD 28 days): approximately 75% | time for LPC levels to return to baseline levels after compound discontinuation (adult female ABCD1 KO mice, 1 or 8 mg/kg PO QD for 14 days, then discontinued): approximately 1 week | C26:0 LPC reducing effect after discontinuation of treatment (adult female ABCD1 KO mice, 1 or 8 mg/kg PO QD for 14 days, then discontinued, blood LPC followed another 2 weeks): reversible; also recorded: to about baseline level | C26:0 LPC/C16:0 LPC levels in the blood (female ABCD1 KO mice, 1 and 10 mg/kg PO QD, 3 months of dosing): maintained at near WT levels | reduction in C26:0 LPC levels in vivo (female ABCD1 KO mice, blood (DBS), 1 mg/kg PO QD for 3 months): ~65% | reduction in C26:0 LPC levels in vivo (female ABCD1 KO mice, blood (DBS), 10 mg/kg PO QD for 3 months): ~70%
